Measurements published in paper PMC12592420, “A mismatch in enzyme-redox partnerships underlies divergent cytochrome P450 activities between human hepatocytes and microsomes” (Communications Biology, 2025).
Where “and” joins values, the source holds several entries; their conditions need not be identical. Equal entries are not always repeated.

Experiments:
[1] = Incubations in human liver S9 + NADPH (same donor pool as HLM); assay type: in vitro ADME; details: human, human liver S9, pH 7.4, Midazolam CLint
[2] = Free fraction in HLM incubation, equilibrium dialysis; assay type: in vitro ADME, human; details: fraction unbound, measured or estimated by in silico models of Fuinc
[3] = Midazolam CLint in HLM with NADPH:NADH (1:1); assay type: in vitro ADME, human; details: cofactor NADH:NADPH (1:1) (Fig. 5b)
[4] = CLint in NADPH-supplemented human liver microsomes; details: for microsomal CLint at 1 µM / CLint scaled at 1 µM: human, microsomes
Method: (§1) Calculation and scaling of CLint,u was done using the equation below and 45 mg of microsomal protein per gram of liver. HLMCLint,u=ln2/x1/t1/2(min)xmLincubation/mgmicrosomalproteinx45mgmicrosomalprotein/gliverx21gliver/kg/Fuinc

[5] = biological target: T1, recombinant human CYP3A4-POR containing cytochrome b5 (Homo sapiens, UniProt P08684); experiment: Midazolam CLint by canonical recombinant CYP3A4-POR with cytochrome b5, with and without gefitinib; assay type: in vitro ADME; details: CYP3A4_POR, NADPH, listed as Mid
T1 construct: purchased BioIVT (named in b64 for the custom bactosomes); host or cells: bactosomes (E. coli is stated for the panel, not for this product)
T1 sequence (P08684 whole entry): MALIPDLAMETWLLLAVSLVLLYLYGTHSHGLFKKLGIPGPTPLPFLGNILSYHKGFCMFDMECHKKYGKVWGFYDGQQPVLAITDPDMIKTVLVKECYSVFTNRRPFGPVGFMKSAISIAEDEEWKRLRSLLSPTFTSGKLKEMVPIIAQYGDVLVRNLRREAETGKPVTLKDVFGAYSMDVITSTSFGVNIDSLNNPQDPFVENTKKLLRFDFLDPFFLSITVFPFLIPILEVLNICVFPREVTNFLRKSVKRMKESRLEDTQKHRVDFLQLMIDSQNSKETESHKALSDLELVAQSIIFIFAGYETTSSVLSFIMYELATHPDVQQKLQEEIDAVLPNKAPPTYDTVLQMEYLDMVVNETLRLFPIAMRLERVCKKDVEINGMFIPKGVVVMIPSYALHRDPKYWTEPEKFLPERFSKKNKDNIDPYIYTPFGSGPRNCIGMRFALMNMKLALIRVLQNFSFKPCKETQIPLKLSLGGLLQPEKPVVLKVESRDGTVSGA
Method: (§2) As the reaction-rate was much higher, aliquots were taken at 0, 1, 2, 3, 4 and 5 min.

[6] = CLint in NADH-supplemented human liver microsomes; details: for microsomal CLint at 1 µM / CLint scaled at 1 µM: human, microsomes
Method: as §1

[7] = biological target: T2, recombinant human CYP3A4-Cytb5R containing cytochrome b5 (Homo sapiens, UniProt P08684); experiment: Midazolam CLint by non-canonical recombinant CYP3A4-Cytb5R with cytochrome b5, with and without gefitinib; assay type: in vitro ADME; details: CYP3A4_Cytb5R, NADPH, listed as Mid
T2 construct: purchased BioIVT (custom synthesis) CE00001(CYP3A4), batch CPD034-3A4; host or cells: bactosomes
T2 sequence (P08684 whole entry): as above
Method: As commercial recombinant human CYPs co-express the individual CYP and reductase with an option to include cytochrome b5. A custom synthesis co-expressing CYP3A4 or CYP1A2 and Cytb5R plus cytochrome b5 was, therefore, ordered from BioIVT and the bactosomes were compared with canonical CYP-POR enzymes plus cytochrome b5.
as §2

[8] = tested on: rat hepatocytes; experiment: Free fraction in rat hepatocytes as surrogate for HH, equilibrium dialysis; assay type: in vitro ADME; details: fraction unbound, measured or estimated by in silico models of Fuinc
[9] = in vitro; details: human, hepatocytes
[10] = Incubations in HLM + NADPH from the same donor pool as S9; assay type: in vitro ADME, human; details: for microsomal CLint at 1 µM: human, human liver microsomes, pH 7.4, Midazolam CLint
Text: Liver S9 (lot 1810001, pool of 50, Xenotech) and HLM (pool of 50, lot 1810003, Xenotech) from the same pool of donors were purchased from Xenotech.

[11] = in vitro; details: human, Caco-2
[12] = HLM (same donors as S9) + NADPH + 5 uM GEF (Fig. 6b)
[13] = HLM (same donors as S9) + NADPH, midazolam 1 µM alone (Fig. 6b)

## Cc1ncc2n1-c1ccc(Cl)cc1C(c1ccccc1F)=NC2 [Midazolam]
[1]; S9 + NADPH + 5 uM GEF (Fig. 6b)
  microsomal CLint at 1 µM: 150 µL/min/mg
[1]; S9 + NADPH, midazolam 1 µM alone (Fig. 6b)
  microsomal CLint at 1 µM: 77.2 µL/min/mg
[2]
  fu_HLM: 0.454
[3]
  Scaled midazolam CLint,u: 761.569 mL/min/kg and 740.511 mL/min/kg
[3]; human, human liver microsomes, pH 7.4, Scaled midazolam CLint,u
  CLint scaled at 1 µM: 762 mL/min/kg
[4]; Fig. 4a,d
  NADPH_HLM_scaled_CLint,u: 614.71 mL/min/kg
[4]; HLM + NADPH, control without gefitinib (Fig. 3d)
  Midazolam CLint: 265.8 µL/min/mg and 269.7 µL/min/mg
[4]; HLM + NADPH, no gefitinib (Fig. 3a)
  Midazolam scaled CLint,u: 531.926 mL/min/kg and 593.803 mL/min/kg
[4]; HLM, cofactor NADPH (Fig. 5b)
  Scaled midazolam CLint,u: 703.964 mL/min/kg and 722.238 mL/min/kg
[4]; NADPH-HLM, individual determinations 1-3, Fig. 1
  Scaled HLM CLint,u: 632.553 mL/min/kg and 670.23 mL/min/kg
[4]; pH 7.4, HLM_NADPH CLint, 1 µM, single determination, Fig. 4a,d
  microsomal CLint at 1 µM: 295 µL/min/mg
[4]; pH 7.4, Midazolam CLint, HLM + NADPH, control without gefitinib (Fig. 3d)
  microsomal CLint at 1 µM: 288 µL/min/mg
[4]; pH 7.4, Midazolam scaled CLint,u, HLM + NADPH, no gefitinib (Fig. 3a)
  CLint scaled at 1 µM: 619 mL/min/kg
[4]; pH 7.4, Scaled HLM CLint,u average, NADPH-HLM, average, Fig. 1
  CLint scaled at 1 µM: 649 mL/min/kg
[4]; pH 7.4, Scaled HLM CLint,u, NADPH-HLM, individual determinations 1-3, Fig. 1
  CLint scaled at 1 µM: 643 mL/min/kg
[4]; pH 7.4, Scaled midazolam CLint,u, HLM, cofactor NADPH (Fig. 5b)
  CLint scaled at 1 µM: 693 mL/min/kg
[5]; Mid + GEF 5 µM (Fig. 5e)
  Midazolam CLint: 3292.07 µL/min/nmol and 3281.83 µL/min/nmol and 2734.43 µL/min/nmol
[5]; Mid alone (Fig. 5e)
  Midazolam CLint: 4061.76 µL/min/nmol and 4262.77 µL/min/nmol and 3511.63 µL/min/nmol
[6]; HLM + NADH, control without gefitinib (Fig. 3d)
  Midazolam CLint: 23.9 µL/min/mg and 21.4 µL/min/mg
[6]; HLM, cofactor NADH (Fig. 5b)
  Scaled midazolam CLint,u: 248.867 mL/min/kg and 261.398 mL/min/kg
[6]; pH 7.4, HLM_NADH CLint, 1 µM, single determination, Fig. 4a,d
  microsomal CLint at 1 µM: 103 µL/min/mg
[6]; pH 7.4, Midazolam CLint, HLM + NADH, control without gefitinib (Fig. 3d)
  microsomal CLint at 1 µM: 14.7 µL/min/mg
[6]; pH 7.4, NADH_HLM_scaled_CLint,u, Fig. 4a,d
  CLint scaled at 1 µM: 213 mL/min/kg
[6]; pH 7.4, Scaled midazolam CLint,u, HLM, cofactor NADH (Fig. 5b)
  CLint scaled at 1 µM: 247 mL/min/kg
[7]; Mid + GEF 5 µM (Fig. 5f)
  Midazolam CLint: 19.6 µL/min/nmol and 13.9 µL/min/nmol and 18.8 µL/min/nmol
[7]; Mid alone (Fig. 5f)
  Midazolam CLint: 6.9 µL/min/nmol and 5.5 µL/min/nmol and 5.1 µL/min/nmol
[8]
  fu_ratHH: 0.543
[9]; HH_scaled_CLint,u
  CLint scaled: 90.5 mL/min/kg
[9]; Midazolam scaled CLint,u
  CLint scaled: 104 mL/min/kg
[9]; Scaled HH CLint,u
  CLint scaled: 62.8 mL/min/kg
[9]; Scaled HH CLint,u average
  CLint scaled: 51.2 mL/min/kg
[10]; [12]
  Midazolam CLint: 392.5 µL/min/mg and 377.3 µL/min/mg
  Percentage of midazolam alone: 121.498% and 119.228% and 122.262%
  microsomal CLint at 1 µM: 336 µL/min/mg
[10]; [13]
  Midazolam CLint: 329.2 µL/min/mg
  microsomal CLint at 1 µM: 276 µL/min/mg
[11]
  Papp: 47.5 ×10⁻⁶ cm/s
